pIC50: −log10 of the molar value. Where two headings read alike, the source gives them in different places.
Experiments:
[1] = biological target: T1, PI3K α (Homo sapiens, UniProt P42336); test: Enzyme activity test in vitro (ADP-Glo lipid kinase), PI3K α; format: biochemical; settings: ATP 40 μM, 120 min
T1 construct: purchased Millipore 14-602-K
Description: (§1) The lipid kinase reaction was carried out under the conditions of the appropriate substrate and ATP. Then the kinase activity was tested with the ADP-Glo™ kit in two steps. Step 1: The kinase reaction was terminated, in which residual ATP was completely removed, and only ADP was remained; Step 2: Kinase test reagent was added to convert ADP into ATP, accompanied by luciferin/luciferase reaction. Finally, the […] numerical output value was converted into kinase activity.
(§2) b) Kit: ADP-Glo™ Lipid Kinase and PIP2: 3PS Kit (Promega #V1792)
(§3) b) Final test system conditions: 1× reaction system: 50 mM HEPES, 50 mM NaCl, 3 mM MgCl2, 0.01% BSA (freshly prepared on the day of the experiment), 1% DMSO (v/v) +/−compound
(§4) c) Reaction system: 3 μL mixture of enzyme and substrate (1:1)+2 μL ATP/MgCl2 mixture +5 μL ADP-Glo reagent+10 μL assay reagent.
(§5) a) Compound dilution: 50 nL of 100× compound/DMSO was transferred to the test well plate with Echo
For PI3K α, the compounds were diluted three-fold from the highest concentration of 0.111 mM for a total of 10 concentrations.
(§6) (1) The compound to be tested was prepared. 50 nL of […] compound solution or DMSO was added to the corresponding well plate. […]
(§7) (16) Fluorescence values were measured on an Envision instrument.

[2] = biological target: T2, PI3K β (Homo sapiens, UniProt P42338); test: Enzyme activity test in vitro (ADP-Glo lipid kinase), PI3K β; format: biochemical; settings: ATP 40 μM, 120 min
T2 construct: purchased Promega V1751
T2 sequence (P42338 whole entry): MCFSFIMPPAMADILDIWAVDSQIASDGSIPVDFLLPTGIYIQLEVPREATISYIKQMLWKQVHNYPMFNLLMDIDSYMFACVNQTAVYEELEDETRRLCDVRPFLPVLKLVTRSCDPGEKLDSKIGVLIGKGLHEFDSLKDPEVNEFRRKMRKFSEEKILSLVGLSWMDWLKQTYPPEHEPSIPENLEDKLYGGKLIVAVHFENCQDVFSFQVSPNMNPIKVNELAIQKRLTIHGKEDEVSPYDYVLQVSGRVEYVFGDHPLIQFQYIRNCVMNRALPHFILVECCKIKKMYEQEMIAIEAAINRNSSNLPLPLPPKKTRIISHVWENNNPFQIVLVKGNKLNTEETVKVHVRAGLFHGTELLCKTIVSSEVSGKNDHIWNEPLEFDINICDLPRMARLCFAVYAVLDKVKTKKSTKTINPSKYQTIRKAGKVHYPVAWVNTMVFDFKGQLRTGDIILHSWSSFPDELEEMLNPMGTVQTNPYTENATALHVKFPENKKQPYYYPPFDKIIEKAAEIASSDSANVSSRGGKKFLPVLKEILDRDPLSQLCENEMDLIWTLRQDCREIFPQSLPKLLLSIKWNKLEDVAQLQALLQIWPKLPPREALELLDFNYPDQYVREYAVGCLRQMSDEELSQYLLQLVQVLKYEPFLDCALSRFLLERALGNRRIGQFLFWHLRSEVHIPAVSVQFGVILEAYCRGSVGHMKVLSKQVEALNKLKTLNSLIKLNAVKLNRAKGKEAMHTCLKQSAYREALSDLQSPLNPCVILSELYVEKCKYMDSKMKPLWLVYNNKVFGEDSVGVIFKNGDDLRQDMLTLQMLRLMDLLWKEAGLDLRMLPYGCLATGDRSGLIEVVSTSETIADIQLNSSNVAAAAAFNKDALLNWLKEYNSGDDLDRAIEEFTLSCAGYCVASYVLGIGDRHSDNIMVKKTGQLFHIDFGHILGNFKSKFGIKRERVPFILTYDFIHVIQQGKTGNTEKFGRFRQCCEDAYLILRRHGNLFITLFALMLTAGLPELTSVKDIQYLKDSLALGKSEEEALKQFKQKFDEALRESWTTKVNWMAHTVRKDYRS
T2 sequence (P27986 whole entry partner): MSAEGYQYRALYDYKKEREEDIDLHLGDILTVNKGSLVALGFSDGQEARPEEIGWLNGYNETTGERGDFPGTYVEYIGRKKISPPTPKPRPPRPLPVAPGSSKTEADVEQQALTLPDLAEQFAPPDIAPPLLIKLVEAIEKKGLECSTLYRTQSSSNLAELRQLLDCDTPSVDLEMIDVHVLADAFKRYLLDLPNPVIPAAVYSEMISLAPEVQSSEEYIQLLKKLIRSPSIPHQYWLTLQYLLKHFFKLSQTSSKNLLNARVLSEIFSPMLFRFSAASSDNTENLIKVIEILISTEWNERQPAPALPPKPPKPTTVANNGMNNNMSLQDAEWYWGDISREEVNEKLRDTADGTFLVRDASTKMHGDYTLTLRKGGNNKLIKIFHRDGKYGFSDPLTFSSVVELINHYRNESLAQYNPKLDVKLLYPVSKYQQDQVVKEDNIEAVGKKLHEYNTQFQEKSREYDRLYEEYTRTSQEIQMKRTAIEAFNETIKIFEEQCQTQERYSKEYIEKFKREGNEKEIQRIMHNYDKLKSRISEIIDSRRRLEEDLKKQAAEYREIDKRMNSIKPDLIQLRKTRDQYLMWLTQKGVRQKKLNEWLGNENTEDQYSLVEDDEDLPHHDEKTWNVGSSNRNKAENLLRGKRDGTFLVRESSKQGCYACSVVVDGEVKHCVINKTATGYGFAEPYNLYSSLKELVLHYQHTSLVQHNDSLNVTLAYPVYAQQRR
Description: as §1, §2, §3, §4, §5
(§8) For PI3K β/PI3K δ/PI3K γ, the compounds were diluted three-fold from the highest concentration of 1.11 mM for a total of 10 concentrations.
as §6, §7

[3] = biological target: T3, PI3K δ (Homo sapiens, UniProt O00329); test: Enzyme activity test in vitro (ADP-Glo lipid kinase), PI3K δ; format: biochemical; settings: ATP 40 μM, 120 min
T3 construct: purchased Millipore 14-604-K
T3 sequence (O00329 whole entry): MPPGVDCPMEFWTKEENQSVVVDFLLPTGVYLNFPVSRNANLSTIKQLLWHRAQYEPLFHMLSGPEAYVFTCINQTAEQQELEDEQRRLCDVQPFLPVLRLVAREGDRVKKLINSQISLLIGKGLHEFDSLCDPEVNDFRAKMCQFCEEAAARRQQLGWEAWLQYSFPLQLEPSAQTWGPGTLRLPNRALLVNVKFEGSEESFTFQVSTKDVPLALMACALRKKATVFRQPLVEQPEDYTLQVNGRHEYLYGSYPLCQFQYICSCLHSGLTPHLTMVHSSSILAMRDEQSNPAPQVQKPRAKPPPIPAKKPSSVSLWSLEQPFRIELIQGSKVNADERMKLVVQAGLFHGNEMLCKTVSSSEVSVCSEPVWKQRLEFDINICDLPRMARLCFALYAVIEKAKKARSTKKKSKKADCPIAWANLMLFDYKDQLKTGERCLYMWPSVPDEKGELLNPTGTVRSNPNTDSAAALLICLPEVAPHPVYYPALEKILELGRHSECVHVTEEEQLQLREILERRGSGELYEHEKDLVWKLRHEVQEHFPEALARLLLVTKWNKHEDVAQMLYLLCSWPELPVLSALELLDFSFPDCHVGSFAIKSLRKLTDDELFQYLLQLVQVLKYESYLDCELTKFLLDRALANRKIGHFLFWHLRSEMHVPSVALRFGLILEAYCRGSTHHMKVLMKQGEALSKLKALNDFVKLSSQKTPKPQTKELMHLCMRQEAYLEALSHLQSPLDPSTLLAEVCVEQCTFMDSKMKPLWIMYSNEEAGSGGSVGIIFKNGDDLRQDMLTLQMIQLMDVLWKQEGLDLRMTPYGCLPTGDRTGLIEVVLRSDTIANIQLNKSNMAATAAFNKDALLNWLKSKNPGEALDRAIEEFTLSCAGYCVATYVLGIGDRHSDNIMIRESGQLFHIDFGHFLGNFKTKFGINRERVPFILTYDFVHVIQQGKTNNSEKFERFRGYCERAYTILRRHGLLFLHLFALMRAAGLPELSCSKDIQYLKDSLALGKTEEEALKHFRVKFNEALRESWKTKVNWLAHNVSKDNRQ
T3 sequence (P27986 whole entry partner): as the sequence (P27986 whole entry partner) above
Description: as §1, §2, §3, §4, §5, §8, §6, §7

[4] = biological target: T4, PI3K γ (Homo sapiens, UniProt P48736); test: Enzyme activity test in vitro (ADP-Glo lipid kinase), PI3K γ; format: biochemical; settings: ATP 25 μM, 120 min
T4 construct: purchased Millipore 14-558-K
T4 sequence (P48736 whole entry): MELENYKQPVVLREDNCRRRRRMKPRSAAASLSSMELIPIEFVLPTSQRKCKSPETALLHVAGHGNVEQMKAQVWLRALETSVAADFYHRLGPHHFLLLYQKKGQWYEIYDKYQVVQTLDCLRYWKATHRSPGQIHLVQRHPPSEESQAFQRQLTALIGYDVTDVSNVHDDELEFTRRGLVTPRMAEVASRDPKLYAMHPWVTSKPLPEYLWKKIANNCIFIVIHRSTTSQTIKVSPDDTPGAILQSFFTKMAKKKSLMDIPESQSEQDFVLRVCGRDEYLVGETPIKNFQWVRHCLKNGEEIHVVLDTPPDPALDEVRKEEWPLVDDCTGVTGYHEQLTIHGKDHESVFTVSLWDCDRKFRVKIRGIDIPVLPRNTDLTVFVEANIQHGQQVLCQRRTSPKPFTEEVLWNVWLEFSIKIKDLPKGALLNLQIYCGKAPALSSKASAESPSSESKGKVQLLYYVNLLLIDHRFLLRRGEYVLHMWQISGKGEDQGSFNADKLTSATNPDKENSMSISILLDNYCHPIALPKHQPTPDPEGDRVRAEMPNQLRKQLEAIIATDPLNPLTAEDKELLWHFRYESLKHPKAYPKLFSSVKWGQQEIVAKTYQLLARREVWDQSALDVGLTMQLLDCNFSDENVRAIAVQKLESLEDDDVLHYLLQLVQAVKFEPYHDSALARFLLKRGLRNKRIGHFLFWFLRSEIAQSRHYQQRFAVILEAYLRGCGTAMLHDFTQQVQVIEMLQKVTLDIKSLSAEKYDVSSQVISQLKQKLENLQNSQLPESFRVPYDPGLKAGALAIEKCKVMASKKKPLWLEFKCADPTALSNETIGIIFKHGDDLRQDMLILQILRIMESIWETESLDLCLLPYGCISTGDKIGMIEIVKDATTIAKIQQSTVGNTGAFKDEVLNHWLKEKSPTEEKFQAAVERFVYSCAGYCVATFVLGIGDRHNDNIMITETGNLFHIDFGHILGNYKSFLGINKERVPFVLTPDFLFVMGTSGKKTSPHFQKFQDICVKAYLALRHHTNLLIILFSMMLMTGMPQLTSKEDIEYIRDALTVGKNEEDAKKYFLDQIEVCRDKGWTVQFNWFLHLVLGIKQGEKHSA
Description: as §1, §2, §3, §4, §5, §8, §6, §7

[5] = test system: HCC1954 cells with PIK3CA mutation; test: Cell activity test in vitro, anti-proliferation by CTG method, HCC1954; format: cell-based; settings: 72 hours
Description: By CTG method, the effect of the compound to be tested on the anti-proliferation activity of cells was determined in two cell lines, HCC1954 and HDQ-P1.
(1) HCC1954 and HDQ-P1 cells (ATCC® HTB-22™) were inoculated into 96-well plates, respectively, with 100 μL of cell complete medium per well (4000 cells/HDQ-P1 per well, 3500 cells/HCC1954 per well). Cells were cultured at 37° C., 5% CO2 for 24 hours.
(2) The cell complete medium was replaced by 100 μL of serum-free medium. The cells were starved overnight.
(3) Compounds were prepared (the starting concentration of the compound was 10 μM, and diluted 3-fold for 8 concentrations. Each concentration of the compound was then diluted 100-fold with serum-free medium), and 25 μL of the diluted compound was added to the plate containing the cells.
(4) The well plate was incubated at 37° C., 5% CO2 for 72 hours (HCC1954) or 120 hours (HDQ-P1).
(5) Subsequent operations were performed according to the instructions of the Promega CTG kit.

[6] = test system: MDR1; test: MDCK-MDR1 permeability test; format: in vitro ADME; settings: dog, pH 7.4, 2.5 hours
Description: Compounds in DMSO stock solution were diluted to 2 μM (DMSO<1%) with a transport buffer (HBSS with 10 mM Hepes, pH 7.4) and applied to the apical side or the basolateral side of the cell monolayer. Permeation of compounds from the A to B direction or from the B to A direction was determined in duplicate. The plate was incubated for 2.5 hours in a CO2 incubator at a temperature of 37+1° C. in a saturated humidity containing 5% CO2 without shaking. In addition, the efflux rate of each compound was also determined. Compounds were quantified by LC-MS/MS analysis based on the peak area ratio of analyte/IS.
After the transport assay, cell monolayer integrity was determined using the fluorescein exclusion test. The buffer was removed from the apical and basolateral chambers. Then 75 μL of 100 μM fluorescein transport buffer and 250 μL of transport buffer were added to the apical and basolateral chambers, respectively. The plate was incubated at 37° C., 5% CO2 and saturated humidity for 30 min without shaking. After 30 min of incubation, 20 μL of fluorescein sample was collected from the apical side, and 60 μL of transport buffer was added. An 80 μL of fluorescein sample was then collected from the basolateral side. Relative fluorescence units (RFU) of fluorescein were measured at 425/528 nm (excitation/emission) with an Envision microplate reader.

[7] = In vivo DMPK study in male CD-1 mice
Text: Experimental purpose: Male CD-1 mice were used as test animals to determine plasma concentrations of compounds after a single administration and evaluate pharmacokinetic behavior.
Experimental operation: 8 healthy adult male CD-1 mice were selected, 4 for the intravenous injection group and 4 for the oral administration group. The compound to be tested was mixed with an appropriate amount of the solvent (DMSO/solvent/water (10:10:80 v/v/v)) for the intravenous injection group. The mixture solution was vortexed and sonicated to prepare a 1.0 mg/mL clear solution, which was filtered through a microporous membrane for further use. For the oral administration group, the solvent was DMSO/solvent/water (10:10:80 v/v/v). After the compound to be tested was mixed with the solvent, the mixture solution was vortexed and sonicated to prepare a 1.0 mg/mL homogeneous suspension for further use. After 1 mg/kg intravenous administration or 3 mg/kg oral administration in mice, whole blood was collected for a certain period of time to prepare plasma, and the drug concentration was analyzed by LC-MS/MS method, then the pharmacokinetic parameters were calculated using Phoenix WinNonlin software (Pharsight, USA).

[8] = In vivo plasma/brain tissue distribution study in male SD rats; settings: oral 10 mpk
Text: Experimental purpose: Male SD rats were used as test animals to determine plasma concentrations of compounds and drug concentrations of brain tissue and cerebrospinal fluid after a single administration, and to evaluate the brain entry of the compound of the present disclosure.
Experimental operation: 12 healthy adult male SD rats were selected. The compound to be tested was mixed with an appropriate amount of solvent (DMSO/solvent/water (10:10:80 v/v/v)) for the oral administration group. The mixture was vortexed and sonicated to prepare a 1.0 mg/mL clear solution for further use. After oral administration of 10 mg/kg to rats, whole blood, brain tissue, and cerebrospinal fluid for a certain period of time were collected to prepare plasma, brain homogenate, and cerebrospinal fluid. The drug concentration was analyzed by LC-MS/MS method, and the pharmacokinetic parameters were calculated by Phoenix WinNonlin software (Pharsight, USA).

[9] = Rat plasma-protein binding; format: in vitro ADME

T1 sequence (P42336 whole entry): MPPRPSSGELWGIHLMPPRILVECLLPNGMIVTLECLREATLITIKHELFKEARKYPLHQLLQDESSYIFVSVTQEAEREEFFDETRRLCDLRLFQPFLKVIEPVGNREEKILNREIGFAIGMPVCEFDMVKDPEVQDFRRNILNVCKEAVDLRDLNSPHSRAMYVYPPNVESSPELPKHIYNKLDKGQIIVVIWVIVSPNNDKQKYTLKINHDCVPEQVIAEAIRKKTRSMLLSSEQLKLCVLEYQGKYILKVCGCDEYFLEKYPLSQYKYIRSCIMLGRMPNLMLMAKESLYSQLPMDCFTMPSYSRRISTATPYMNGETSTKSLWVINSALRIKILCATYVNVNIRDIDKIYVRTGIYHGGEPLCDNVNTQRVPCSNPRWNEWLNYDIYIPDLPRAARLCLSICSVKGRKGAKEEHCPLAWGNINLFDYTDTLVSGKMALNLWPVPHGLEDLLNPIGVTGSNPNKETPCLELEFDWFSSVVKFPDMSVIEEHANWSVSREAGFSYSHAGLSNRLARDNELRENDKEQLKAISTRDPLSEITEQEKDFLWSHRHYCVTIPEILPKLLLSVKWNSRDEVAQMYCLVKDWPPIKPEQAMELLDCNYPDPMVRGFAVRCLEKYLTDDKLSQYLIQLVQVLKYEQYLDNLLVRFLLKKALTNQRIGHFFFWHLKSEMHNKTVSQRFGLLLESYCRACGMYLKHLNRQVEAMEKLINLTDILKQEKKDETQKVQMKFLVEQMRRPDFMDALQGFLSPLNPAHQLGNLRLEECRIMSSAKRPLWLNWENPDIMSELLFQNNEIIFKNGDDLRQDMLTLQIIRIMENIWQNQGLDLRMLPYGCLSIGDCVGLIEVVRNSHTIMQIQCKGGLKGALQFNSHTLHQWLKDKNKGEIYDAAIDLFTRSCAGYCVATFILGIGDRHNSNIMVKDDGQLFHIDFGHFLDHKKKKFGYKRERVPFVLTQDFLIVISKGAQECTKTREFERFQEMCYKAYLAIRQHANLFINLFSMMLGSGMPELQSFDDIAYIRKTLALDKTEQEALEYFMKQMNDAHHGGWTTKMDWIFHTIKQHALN
T1 sequence (P27986 whole entry partner): as the sequence (P27986 whole entry partner) above

pIC50 [1]: 9.12
pIC50 [2]: 6.07
pIC50 [3]: 6.88
pIC50 [4]: 7.14
pIC50 [5]: 7.00
Papp A→B at 2.5 h, 2 μM [6]: 1.99 ×10⁻⁶ cm/s
Papp B→A at 2.5 h, 2 μM [6]: 16 ×10⁻⁶ cm/s
Oral DNAUC ([7]; 3 mg/kg oral administration): 778 nM · h/mpk
clearance ([7]; male, CD-1, mouse, plasma, 1 mg/kg intravenous, read-out: Intravenous injection Cl): 26.1 mL/min/kg
half-life ([7]; male, CD-1, mouse, plasma, 1 mg/kg intravenous, read-out: Intravenous injection T1/2 (converted)): 1.2 h
Vd ([7]; male, CD-1, mouse, plasma, 1 mg/kg intravenous, read-out: Intravenous injection Vd): 1.09 L/kg
Cmax ([7]; male, CD-1, mouse, plasma, 3 mg/kg oral administration): 1760 nM
bioavailability ([7]; male, CD-1, mouse, plasma, 3 mg/kg oral vs 1 mg/kg intravenous, read-out: Oral F %): 50%
Tmax ([8]; male, SD, rat, 10 mg/kg, brain tissue, read-out: Tmax, Brain tissue): 1 h
AUC ([8]; male, SD, rat, 10 mg/kg, cerebrospinal fluid, read-out: AUC, Cerebrospinal fluid): 0.128 µM·h
Cmax ([8]; male, SD, rat, 10 mg/kg, cerebrospinal fluid, read-out: Cmax, Cerebrospinal fluid): 60.4 nM
Tmax ([8]; male, SD, rat, 10 mg/kg, cerebrospinal fluid, read-out: Tmax, Cerebrospinal fluid): 1 h
AUC ([8]; male, SD, rat, 10 mg/kg, plasma, read-out: AUC, Plasma): 3.12 µM·h
Cmax ([8]; male, SD, rat, 10 mg/kg, plasma, read-out: Cmax, Plasma): 1520 nM
half-life ([8]; male, SD, rat, 10 mg/kg, plasma, read-out: T1/2, Plasma (converted)): 1.32 h
Tmax ([8]; male, SD, rat, 10 mg/kg, plasma, read-out: Tmax, Plasma): 0.25 h
AUC, Brain tissue ([8]; brain tissue): ND, 342 nM * h
Cmax, Brain tissue ([8]; brain tissue): 147 nM
fraction unbound [9]: 0.515
SMILES: C[C@H](Nc1ccc2c(c1)OCCn1cc(N3C(=O)OC[C@H]3C(F)F)nc1-2)C(N)=O [GDC-0077]
